Consider 2 compounds from US8729048B2, “Methods and materials for assessing responsiveness to PARP inhibitors and platinating agents” (Mayo Foundation for Medical Education and Research, priority 2011, dated 2014).

The test system of assay [1] is poly(ADP-ribose) polymer (pADPr) in PEO1 cells. The assay can be described thus: Immunoblotting for poly(ADP-ribose) polymer. To be noted: 72 hours, ABT-888 0-40 μM. The assay is classed as cell-based. The procedure: FIG. 2. DNA-PK is activated following PARP inhibitor exposure in PEO1 cells. (A) Western blots for poly(ADP-ribose) polymer (pADPr) and phosphorylation of DNA-PK substrates (DNA-PKcs autophosphorylation at Thr^2609 and Histone H2AX at Ser^139) in PEO1 cells following 72 hours exposure to increasing concentrations of ABT-888 (0, 0.625, 1.25, 2.5, 5, 10, 20, and 40 μM). Hsp90, total DNA-PKcs, and Histone H1 are used as loading controls. […] (C) Quantitation of cells positive for phospho-H2AX foci in PEO1 and PEO4 cells, following treatment with DMSO, 500 nM DNA-PKi, 20 μM ABT-888 (ABT), ABT-888 and DNA-PKi, 50 μM Etoposide (Etop), or 5 Gy ionizing radiation (IR). […]
Cells were washed twice with calcium- and magnesium-free Dulbecco's phosphate-buffered saline (PBS) and solubilized in 6 M guanidine hydrochloride containing 250 mM Tris-HCl, pH 8.5 at 20° C., 10 mM EDTA, 1% (v/v) 2-mercaptoethanol, and 1 mM freshly added phenylmethylsulfonyl fluoride. After preparation for electrophoresis as described elsewhere (Kaufmann et al., Blood, 89:2098-2104 (1997)), aliquots containing 50 μg of protein (determined by the bicinchoninic acid method—S10) were separated on SDS-polyacrylamide gels containing 8% (w/v) acrylamide, electrophoretically transferred to nitrocellulose, and probed with immunological reagents as described elsewhere (Kaufmann, Anal. Biochem., 296:283-286 (2001)). […]

The test system of assay [2] is phospho-H2AX and phospho-DNA-PKcs foci in HCC1937 cells. The assay can be described thus: Immunofluorescence / confocal foci in HCC1937 cells. It is filed as cell-based. The procedure: FIG. 15. Upon PARP inhibition, HCC1937 cells form phospho-H2AX foci that colocalize to regions of activated DNA-PK. (A) Quantitation of cells positive for phospho-H2AX foci in HCC1937 and HCC1937/BRCA1 cells, following treatment with 0.2% DMSO, 250 nM DNA-PKi, 20 μM ABT-888 (ABT), ABT-888 and DNA-PKi, 50 μM etoposide (Etop), or 5 Gy ionizing radiation (IR). Cells were exposed to ABT-888 and/or DNA-PKi for 72 hours, etoposide for 1 hour, or allowed to recover 1 hour post-IR. Results are reported as mean±SEM of 3 independent experiments. (B) Confocal microscopy after staining with antibodies to phospho-H2AX (Ser^139) and phospho-DNA PKcs (Thr^2609) as in FIG. 2D. HCC1937 cells are shown on the left, and reconstituted HCC1937/BRCA1 cells on the right.
Immunofluorescence studies were performed as described elsewhere (Segovis et al., J. Immunol., 182:6933-6942 (2009)) with several modifications. […]
Coverslips were then washed three times with PBS and incubated for 1 h with Alexa Fluor 488- and/or 568-conjugated secondary antibody (Invitrogen) diluted 1:1000. […] Phospho-H2AX positive cells (defined as having >10 foci/cell) were counted on a Zeiss Axioplan microscope. […] Quantitation and image processing were performed using the Zeiss Zen software package and Adobe Photoshop CS3.

Molecules are shown by their SMILES.

For `C[C@]1(c2nc3c(C(N)=O)cccc3[nH]2)CCCN1` [ABT-888], the “poly(ADP-ribosyl)ation” value in assay [1] is on record as “decreased”. As for `CCN1CCN(CC(=O)Nc2ccc(-c3cccc4c(=O)cc(N5CCOCC5)oc34)c3sc4ccccc4c23)CC1` [AZ 12594248], the “effect on ABT-888 induced colocalization of phospho-Thr2609-DNA-PK and phospho-Ser139-H2AX in foci” value in assay [2] is on record as “inhibited ABT-888 induced colocalization”. Further, the “effect on formation of H2AX foci” value in assay [2] (250 nM DNA-PKi with 20 μM ABT-888, 72 hours) is reported as “diminished formation of H2AX foci”.
